Each compound was assayed on Phakopsora pachyrhizi (assay: Test A: preventive spray on soybean seedlings, Asian soybean rust, visual disease rating). Conditions: rate 10 ppm.
Format: in vivo
Excerpt: General protocol for preparing test suspensions for Test A: the test compounds were first dissolved in acetone in an amount equal to 3% of the final volume and then suspended at the desired concentration (in ppm) in acetone and purified water (50/50 mix by volume) containing 250 ppm of the surfactant PEG400 (polyhydric alcohol esters). The resulting test suspensions were then used in Test A.
The test solution was sprayed to the point of run-off on soybean seedlings. The following day the seedlings were inoculated with a spore suspension of Phakopsora pachyrhizi (the causal agent of Asian soybean rust) and incubated in a saturated atmosphere at 22° C. for 24 h and then moved to a growth chamber at 22° C. for 8 days, after which time visual disease ratings were made.
A rating of 100 indicates 100% disease control and a rating of 0 indicates no disease control (relative to the controls).

CCO/C(=C\Oc1ccc(Cn2cc(C(=O)NOCC(F)(F)F)cn2)c(F)c1F)C(F)(F)F [Compound 79] and CCO/C(=C\Oc1ccc(Cn2cc(C(=O)NOCC3CC3)cn2)c(F)c1F)C(F)(F)F [Compound 80] are the same in “Test A rating (100 = 100% disease control, 0 = no disease control relative to the controls)” value: 100% for the first, 100% for the second.

CCO/C(=C\Oc1ccc(Cn2cc(C(=O)NOCC#N)cn2)c(F)c1)C(F)(F)F [Compound 81] and CCO/C(=C\Oc1ccc(Cn2cc(C(=O)NOCC3CC3)cn2)c(F)c1)C(F)(F)F [Compound 82] are the same in “Test A rating (100 = 100% disease control, 0 = no disease control relative to the controls)” value: 100% for the first, 100% for the second.

First: C=CCONC(=O)c1cn(Cc2ccc(O/C=C(\OCC)C(F)(F)F)cc2)nn1 [Compound 83]
Second: C=CCOC(=O)Cc1cnn(Cc2ccc(O/C=C(\OCC)C(F)(F)F)cc2)c1 [compound 14]
The “Test A rating (100 = 100% disease control, 0 = no disease control relative to the controls)” value of the first is higher: 99% for the first, 96% for the second.

Going from C=C=CC(=O)NCc1cnn(Cc2ccc(OCC3(C(F)(F)F)OCCO3)cc2)c1 [Compound 84] to CCOC(=O)OCc1cnn(Cc2ccc(OCC3(C(F)(F)F)OCCO3)cc2)c1 [Compound 85], the “Test A rating (100 = 100% disease control, 0 = no disease control relative to the controls)” value falls from 99% to 86%.

Compared with C#CCONC(=O)c1cccc(Cc2ccc(O/C=C(\OCC)C(F)(F)F)cc2)n1 [Compound 125, 2-[[4-1[[(1Z)-2-ethoxy-3,3,3-trifluoro-1-propen-1-yl]oxy]phenyl]methyl]-N-(2-propyn-1-yloxy)-6-pyridinecarboxamide], CCO/C(=C\Oc1ccc(Cc2cccc(C(=O)NOCC(F)(F)F)n2)cc1)C(F)(F)F [Compound 127, 2-[[4-1[[(1Z)-2-ethoxy-3,3,3-trifluoro-1-propen-1-yl]oxy]phenyl]methyl]-N-(2,2,2-trifluoroethoxy)-6-pyridinecarboxamide] is lower in “Test A rating (100 = 100% disease control, 0 = no disease control relative to the controls)” value: 100% for the first, 99% for the second.

C#CCONC(=O)c1cc(Cc2ccc(O/C=C(\OCC)C(F)(F)F)cc2)ccn1 [Compound 131, 4-[[4-1[[(1Z)-2-ethoxy-3,3,3-trifluoro-1-propen-1-yl]oxy]phenyl]methyl]-N-(2-propyn-1-yloxy)-2-pyridinecarboxamide] and CCO/C(=C\Oc1ccc(Cc2ccnc(C(=O)NOCC3CC3)c2)cc1)C(F)(F)F [Compound 132, 4-[[4-1[[(1Z)-2-ethoxy-3,3,3-trifluoro-1-propen-1-yl]oxy]phenyl]methyl]-N-(cyclopropylmethoxy)-2-pyridinecarboxamide] are the same in “Test A rating (100 = 100% disease control, 0 = no disease control relative to the controls)” value: 100% for the first, 100% for the second.

CCO/C(=C\Oc1ccc(Cc2ccnc(C(=O)NOCC(F)(F)F)c2)cc1)C(F)(F)F [Compound 133, 4-[[4-1[[(1Z)-2-ethoxy-3,3,3-trifluoro-1-propen-1-yl]oxy]phenyl]methyl]-N-(2,2,2-trifluoroethoxy)-2-pyridinecarboxamide] and CCO/C(=C\Oc1ccc(Cn2cc(COC(=O)C(F)(F)Cl)cn2)cc1)C(F)(F)F [compound 19] are the same in “Test A rating (100 = 100% disease control, 0 = no disease control relative to the controls)” value: 100% for the first, 100% for the second.

Going from CCO/C(=C\Oc1ccc(Cn2cc(CC(=O)OCC3CC3)cn2)cc1)C(F)(F)F [compound 13] to CCO/C(=C\Oc1ccc(Cn2cc(C(=O)NOCC3CC3)cn2)cc1)C(F)(F)F [compound 25], the “Test A rating (100 = 100% disease control, 0 = no disease control relative to the controls)” value rises from 96% to 100%.

CCO/C(=C\Oc1ccc(Cn2cc(COC(=O)C(Cl)Cl)cn2)cc1)C(F)(F)F [compound 16] and CCO/C(=C\Oc1ccc(Cn2cc(COC(=O)C(CC)CC)cn2)cc1)C(F)(F)F [compound 36] are the same in “Test A rating (100 = 100% disease control, 0 = no disease control relative to the controls)” value: 100% for the first, 100% for the second.

Going from CCO/C(=C\Oc1ccc(Cn2cc(CON(C(C)=O)C(C)=O)cn2)cc1)C(F)(F)F [compound 20] to CCO/C(=C\Oc1ccc(Cn2cc(COC(=O)CCC(=O)OC)cn2)cc1)C(F)(F)F [compound 26], the “Test A rating (100 = 100% disease control, 0 = no disease control relative to the controls)” value rises from 79% to 100%.

CCO/C(=C\Oc1ccc(Cn2cc(COC(=O)CC#N)cn2)cc1)C(F)(F)F [compound 24] and CCO/C(=C\Oc1ccc(Cn2cc(COC(=O)C3CCCC3)cn2)cc1)C(F)(F)F [compound 29] are the same in “Test A rating (100 = 100% disease control, 0 = no disease control relative to the controls)” value: 100% for the first, 100% for the second.

CCO/C(=C\Oc1ccc(Cn2cc(C(=O)NOCC=CCl)cn2)cc1)C(F)(F)F [compound 32] and CCO/C(=C\Oc1ccc(Cn2cc(C(=O)N(C)OCC3CC3)cn2)cc1)C(F)(F)F [compound 39] are the same in “Test A rating (100 = 100% disease control, 0 = no disease control relative to the controls)” value: 100% for the first, 100% for the second.

With CCO/C(=C\Oc1ccc(Cn2cc(C(=NOCC3CC3)OC)cn2)cc1)C(F)(F)F [compound 34] the “Test A rating (100 = 100% disease control, 0 = no disease control relative to the controls)” value was 97%.

Same assay, conditions: rate 10 ppm, read-out: Test A rating (100 = 100% disease control, 0 = no disease control relative to the controls)

C=CCON(C)C(=O)c1cccc(Cc2ccc(O/C=C(\OCC)C(F)(F)F)cc2)n1 [Compound 108, 2-[[4-[[(1Z)-2-ethoxy-3,3,3-trifluoro-1-propen-1-yl]oxy]phenyl]methyl]-N-methyl-N-(2-propen-1-yloxy)-6-pyridinecarboxamide] and C#CCON(C)C(=O)c1cccc(Cc2ccc(O/C=C(\OCC)C(F)(F)F)cc2)n1 [Compound 121, 2-[[4-[[(1Z)-2-ethoxy-3,3,3-trifluoro-1-propen-1-yl]oxy]phenyl]methyl]-N-methyl-N-(2-propyn-1-yloxy)-6-pyridinecarboxamide] are the same in pest or weed control at 10 ppm: 100% for the first, 100% for the second.

C=CCONC(=O)c1cccc(Cc2ccc(O/C=C(\OCC)C(F)(F)F)cc2)n1 [Compound 109, 2-[[4-[[(1Z)-2-ethoxy-3,3,3-trifluoro-1-propen-1-yl]oxy]phenyl]methyl]-N-(2-propen-1-yloxy)-6-pyridinecarboxamide] and CCO/C(=C\Oc1ccc(Cc2cccc(C(=O)NOCC3CC3)n2)cc1)C(F)(F)F [Compound 124, 2-[[4-[[(1Z)-2-ethoxy-3,3,3-trifluoro-1-propen-1-yl]oxy]phenyl]methyl]-N-(cyclopropylmethoxy)-6-pyridinecarboxamide] are the same in pest or weed control at 10 ppm: 100% for the first, 100% for the second.

C=CCON(CC)C(=O)c1cc(Cc2ccc(O/C=C(\OCC)C(F)(F)F)cc2)ccn1 [Compound 119, 4-[[4-[[(1Z)-2-ethoxy-3,3,3-trifluoro-1-propen-1-yl]oxy]phenyl]methyl]-N-ethyl-N-(2-propen-1-yloxy)-2-pyridinecarboxamide] and CCO/C(=C\Oc1ccc(Cc2cccc(C(=O)N(C)OCC3CC3)n2)cc1)C(F)(F)F [Compound 123, 2-[[4-[[(1Z)-2-ethoxy-3,3,3-trifluoro-1-propen-1-yl]oxy]phenyl]methyl]-N-(cyclopropylmethoxy)-N-methyl-6-pyridinecarboxamide] are the same in pest or weed control at 10 ppm: 100% for the first, 100% for the second.

CCO/C(=C\Oc1ccc(Cc2cccc(C(=O)N(C)OCC(F)(F)F)n2)cc1)C(F)(F)F [Compound 120, 2-[[4-[[(1Z)-2-ethoxy-3,3,3-trifluoro-1-propen-1-yl]oxy]phenyl]methyl]-N-(2,2,2-trifluoroethoxy)-N-methyl-6-pyridinecarboxamide] showed a pest or weed control at 10 ppm of 100%.

Same assay, conditions: rate 50 ppm

COCC(=O)OCc1cnn(Cc2ccc(OCC3(C(F)(F)F)OCCO3)cc2)c1 [Compound 86] and COCCC(=O)OCc1cnn(Cc2ccc(OCC3(C(F)(F)F)OCCO3)cc2)c1 [Compound 87] are the same in “Test A rating (100 = 100% disease control, 0 = no disease control relative to the controls)” value: 100% for the first, 100% for the second.

O=C(CC1CC1)OCc1cnn(Cc2ccc(OCC3(C(F)(F)F)OCCO3)cc2)c1 [Compound 88] and C=CCC(=O)OCc1cnn(Cc2ccc(OCC3(C(F)(F)F)OCCO3)cc2)c1 [Compound 89] are the same in “Test A rating (100 = 100% disease control, 0 = no disease control relative to the controls)” value: 100% for the first, 100% for the second.

CC(=O)OCc1cnn(Cc2ccc(OCC3(C(F)(F)F)OCCO3)cc2)c1 [Compound 90] and CC(C)CC(=O)OCc1cnn(Cc2ccc(OCC3(C(F)(F)F)OCCO3)cc2)c1 [Compound 92] are the same in “Test A rating (100 = 100% disease control, 0 = no disease control relative to the controls)” value: 100% for the first, 100% for the second.

CCOC(=O)C(=O)OCc1cnn(Cc2ccc(OCC3(C(F)(F)F)OCCO3)cc2)c1 [Compound 91] and O=C(CC(F)(F)F)OCc1cnn(Cc2ccc(OCC3(C(F)(F)F)OCCO3)cc2)c1 [Compound 93] are the same in “Test A rating (100 = 100% disease control, 0 = no disease control relative to the controls)” value: 100% for the first, 100% for the second.

C#CCOCc1cnn(Cc2ccc(OCC3(C(F)(F)F)OCCO3)cc2)c1 [Compound 94] and CCO/C(=C\Oc1ccc(Cn2cc(COC(=O)NC)cn2)cc1)C(F)(F)F [compound 15] are the same in “Test A rating (100 = 100% disease control, 0 = no disease control relative to the controls)” value: 100% for the first, 100% for the second.

In the case of CCO/C(=C\Oc1ccc(Cn2cc(COC(=O)N(C)C)cn2)cc1)C(F)(F)F [compound 8], the “Test A rating (100 = 100% disease control, 0 = no disease control relative to the controls)” value is reported as 60%.

Source: patent publication US20250089717A1, “FUNGICIDAL HALOMETHYL KETONES, HYDRATES AND ENOL ETHERS AND THEIR MIXTURES” (FMC CORPORATION, priority 2023, published 2025)
